Results from PubChem BioAssay AID2060912 (Molecular Pharmacology Branch, DTP, NCI, 2025).

System: HUVEC/MSC spheroids viability
Experiment: Human HUVEC/MSC cell line growth inhibition [KRAS2];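 on viability, T/C: percent of DMSO vehicle control luminescence so 100% = untreated viability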
Conditions: for IC50: curve of first compound; for viability, T/C: stronger effect = lower value
Excerpt: Multicellular complex tumor spheroid response to RAS pathway inhibitors in combination with a targeted agents in patient-derived cell lines with oncogenic KRAS variants from multiple cancer types
A high-throughput screen of multi-cell type tumor spheroids was designed to identify active combinations of targeted small molecules and KRAS pathway inhibitors. Complex spheroids include a stromal component modeled by human endothelial cells (HUVEC) and fibroblasts modeled by human mesenchymal stem cells (MSCs). The concentration ranges selected for each drug and investigational agent were based upon clinically achievable concentrations if the clinical Cmax of the agent was known. * [This particular assayID is a followup dataset requested by reviewers of the manuscript. It is a test of the HUVEC and MSC without the tumor cells, and was conducted using different drug plates and a different plate layout.]
Compounds. The drugs and investigational agents: BI-3406 (NSC825286), BAY-293 (NSC824723), batoprotafib (TNO155; NSC825523), sotorasib (AMG 510; NSC818433), MRTX1257 (NSC819558), elimusertib (BAY 1895344; NSC800525), molibresib (GSK525762; NSC774829), temuterkib (LY3214996; NSC803410), venetoclax (NSC766270), alisertib (NSC759677), olaparib (NSC753686), talazoparib (NSC767125), erdafitinib (NSC781556), ipatasertib (NSC767898), cabozantinib (NSC761068), nintedanib (NSC756659), abemaciclib (NSC768073), docetaxel (NSC628503), trametinib (NSC758246), and sapanisertib (NSC764658) were obtained from the National Cancer Institute (NCI) Developmental Therapeutics Program Chemical Repository. The FDA-approved anticancer drug set is available from the Developmental Therapeutics Program. […] The stock solutions were prepared in dimethyl sulfoxide (DMSO, Sigma-Aldrich, St. Louis, MO, cat. D2650) at 800-fold the tested concentration and stored at -70 degrees C prior to their use. All drugs and investigational agents were tested over a range starting from a high concentration at or near the clinical Cmax and decreasing in half-log increments. If the clinical Cmax for an agent had not been determined, the highest concentration tested was 10 microM.
Cell Culture. All cells were maintained in an incubator at 37 degrees C and 5% CO2 with 95% humidity. The PDC lines were cultured according to standard operating procedures established by the NCI PDMR (https://pdmr.cancer.gov/sops/default.htm). Briefly, all PDCs were thawed and cultured in Matrigel-coated flasks prepared with a working solution of 1X Ham's F-12 nutrient mix, without supplementation (Invitrogen, Waltham, MA, cat. 11765054), 100 U/mL penicillin-streptomycin (Invitrogen, cat. 15140122), and 2.5% Matrigel (Corning Inc., Corning, NY, cat. 354248) for the first three passages. All PDCs were cultured in complete DMEM/F-12 media containing advanced DMEM/F-12 (Invitrogen, cat. 12634028), 4.9% defined fetal bovine serum, heat inactivated (HyClone Laboratories Inc., Logan, UT, cat. SH30070.03HI), 389 ng/mL hydrocortisone (Sigma-Aldrich, cat. H4001), 9.7 ng/mL human EGF recombinant protein (Invitrogen, cat. PHG0313), 23.4 microg/mL adenine (Sigma-Aldrich, cat. A2786), 97.3 U/mL penicillin-streptomycin (Invitrogen, cat. 15140122), 1.9 mM L-glutamine (Invitrogen, cat. 25030081), and 9.7 microM Y-27632 dihydrochloride (Tocris Bioscience, Bristol, United Kingdom, cat. 1254). The PDCs were cultured in complete DMEM/F12 media without 9.7 microM Y-27632 dihydrochloride for at least two passages prior to the screen. The established cell line HOP-62 was cultured in RPMI 1640 medium, HEPES (Invitrogen, cat. 22400105) with 10% defined fetal bovine serum (HyClone Laboratories Inc., cat. SH30070.03) and 2 mM L-glutamine (Invitrogen, cat. 25030081). The pooled donor HUVEC were cultured in endothelial cell growth medium 2 (PromoCell, Heidelberg, Germany, cat. C-22011) and the hMSC were cultured in mesenchymal stem cell growth medium 2 (PromoCell, cat. C-28009). […]

[1] = second compound 0.0316 µM, first compound 0.0316 µM
[2] = second compound 0.0316 µM, first compound 0.1 µM
[3] = second compound 0.0316 µM, first compound 0.316 µM
[4] = second compound 0.0316 µM, first compound 1 µM
[5] = second compound 0.0316 µM, first compound 3.16 µM
[6] = second compound 0.0316 µM, first compound 10 µM
[7] = second compound 0.1 µM, first compound 0.0316 µM
[8] = second compound 0.1 µM, first compound 0.1 µM
[9] = second compound 0.1 µM, first compound 0.316 µM
[10] = second compound 0.1 µM, first compound 1 µM
[11] = second compound 0.1 µM, first compound 3.16 µM
[12] = second compound 0.1 µM, first compound 10 µM
[13] = second compound 0.316 µM, first compound 0.0316 µM
[14] = second compound 0.316 µM, first compound 0.1 µM
[15] = second compound 0.316 µM, first compound 0.316 µM
[16] = second compound 0.316 µM, first compound 1 µM
[17] = second compound 0.316 µM, first compound 3.16 µM
[18] = second compound 0.316 µM, first compound 10 µM
[19] = second compound 1 µM, first compound 0.0316 µM
[20] = second compound 1 µM, first compound 0.1 µM
[21] = second compound 1 µM, first compound 0.316 µM
[22] = second compound 1 µM, first compound 1 µM
[23] = second compound 1 µM, first compound 3.16 µM
[24] = second compound 1 µM, first compound 10 µM
[25] = second compound 3.16 µM, first compound 0.0316 µM
[26] = second compound 3.16 µM, first compound 0.1 µM
[27] = second compound 3.16 µM, first compound 0.316 µM
[28] = second compound 3.16 µM, first compound 1 µM
[29] = second compound 3.16 µM, first compound 3.16 µM
[30] = second compound 3.16 µM, first compound 10 µM
[31] = second compound 10 µM, first compound 0.0316 µM
[32] = second compound 10 µM, first compound 0.1 µM
[33] = second compound 10 µM, first compound 0.316 µM
[34] = second compound 10 µM, first compound 1 µM
[35] = second compound 10 µM, first compound 3.16 µM
[36] = second compound 10 µM, first compound 10 µM

CC(C)NCC(C(=O)N1CCN(c2ncnc3c2C(C)CC3O)CC1)c1ccc(Cl)cc1 (stereo unspecified) + C=CC(=O)N1CCN(c2nc(=O)n(-c3c(C)ccnc3C(C)C)c3nc(-c4c(O)cccc4F)c(F)cc23)C(C)C1
IC50 (second compound 0.0316 µM): > 10 µM | IC50 (second compound 0.1 µM): > 10 µM | IC50 (second compound 0.316 µM): > 10 µM | IC50 (second compound 1 µM): > 10 µM | IC50 (second compound 3.16 µM): > 10 µM | IC50 (second compound 10 µM): > 10 µM | viability, T/C [1]: 87.5% | viability, T/C [2]: 93.7% | viability, T/C [3]: 97.1% | viability, T/C [4]: 77.7% | viability, T/C [5]: 52.4% | viability, T/C [6]: 53.6% | viability, T/C [7]: 92.4% | viability, T/C [8]: 104% | viability, T/C [9]: 85.8% | viability, T/C [10]: 76.1% | viability, T/C [11]: 54.9% | viability, T/C [12]: 64.9% | viability, T/C [13]: 98.7% | viability, T/C [14]: 102% | viability, T/C [15]: 82.2% | viability, T/C [16]: 65.8% | viability, T/C [17]: 59.4% | viability, T/C [18]: 63.1% | viability, T/C [19]: 105% | viability, T/C [20]: 99.4% | viability, T/C [21]: 96.4% | viability, T/C [22]: 71.3% | viability, T/C [23]: 58% | viability, T/C [24]: 68.1% | viability, T/C [25]: 96.8% | viability, T/C [26]: 124% | viability, T/C [27]: 86.6% | viability, T/C [28]: 84.6% | viability, T/C [29]: 62.9% | viability, T/C [30]: 68.9% | viability, T/C [31]: 110% | viability, T/C [32]: 119% | viability, T/C [33]: 102% | viability, T/C [34]: 64.5% | viability, T/C [35]: 65% | viability, T/C [36]: 47.2%

CCN1CCN(Cc2ccc(Nc3ncc(F)c(-c4cc(F)c5nc(C)n(C(C)C)c5c4)n3)nc2)CC1 + C=CC(=O)N1CCN(c2nc(=O)n(-c3c(C)ccnc3C(C)C)c3nc(-c4c(O)cccc4F)c(F)cc23)C(C)C1
IC50 (second compound 0.0316 µM): > 1 µM | IC50 (second compound 0.1 µM): > 1 µM | IC50 (second compound 0.316 µM): > 1 µM | IC50 (second compound 1 µM): > 1 µM | IC50 (second compound 3.16 µM): > 1 µM | IC50 (second compound 10 µM): > 1 µM | viability, T/C (second compound 0.0316 µM, first compound 0.00316 µM): 76% | viability, T/C (second compound 0.0316 µM, first compound 0.01 µM): 95.8% | viability, T/C [1]: 93.7% | viability, T/C [2]: 86.6% | viability, T/C [3]: 129% | viability, T/C [4]: 107% | viability, T/C (second compound 0.1 µM, first compound 0.00316 µM): 96.8% | viability, T/C (second compound 0.1 µM, first compound 0.01 µM): 102% | viability, T/C [7]: 85.1% | viability, T/C [8]: 82.9% | viability, T/C [9]: 129% | viability, T/C [10]: 116% | viability, T/C (second compound 0.316 µM, first compound 0.00316 µM): 113% | viability, T/C (second compound 0.316 µM, first compound 0.01 µM): 106% | viability, T/C [13]: 98% | viability, T/C [14]: 87.2% | viability, T/C [15]: 112% | viability, T/C [16]: 123% | viability, T/C (second compound 1 µM, first compound 0.00316 µM): 118% | viability, T/C (second compound 1 µM, first compound 0.01 µM): 109% | viability, T/C [19]: 109% | viability, T/C [20]: 119% | viability, T/C [21]: 119% | viability, T/C [22]: 133% | viability, T/C (second compound 3.16 µM, first compound 0.00316 µM): 127% | viability, T/C (second compound 3.16 µM, first compound 0.01 µM): 111% | viability, T/C [25]: 132% | viability, T/C [26]: 121% | viability, T/C [27]: 138% | viability, T/C [28]: 162% | viability, T/C (second compound 10 µM, first compound 0.00316 µM): 149% | viability, T/C (second compound 10 µM, first compound 0.01 µM): 154% | viability, T/C [31]: 130% | viability, T/C [32]: 134% | viability, T/C [33]: 118% | viability, T/C [34]: 162%

CCNC(=O)CC1N=C(c2ccc(Cl)cc2)c2cc(OC)ccc2-n2c(C)nnc21 (stereo unspecified) + C=CC(=O)N1CCN(c2nc(=O)n(-c3c(C)ccnc3C(C)C)c3nc(-c4c(O)cccc4F)c(F)cc23)C(C)C1
IC50 (second compound 0.0316 µM): > 10 µM | IC50 (second compound 0.1 µM): > 10 µM | IC50 (second compound 0.316 µM): > 10 µM | IC50 (second compound 1 µM): > 10 µM | IC50 (second compound 3.16 µM): > 10 µM | IC50 (second compound 10 µM): > 10 µM | viability, T/C [1]: 94.8% | viability, T/C [2]: 96.7% | viability, T/C [3]: 129% | viability, T/C [4]: 140% | viability, T/C [5]: 120% | viability, T/C [6]: 121% | viability, T/C [7]: 104% | viability, T/C [8]: 86.3% | viability, T/C [9]: 110% | viability, T/C [10]: 138% | viability, T/C [11]: 162% | viability, T/C [12]: 151% | viability, T/C [13]: 111% | viability, T/C [14]: 109% | viability, T/C [15]: 116% | viability, T/C [16]: 143% | viability, T/C [17]: 131% | viability, T/C [18]: 187% | viability, T/C [19]: 114% | viability, T/C [20]: 105% | viability, T/C [21]: 140% | viability, T/C [22]: 163% | viability, T/C [23]: 179% | viability, T/C [24]: 174% | viability, T/C [25]: 116% | viability, T/C [26]: 146% | viability, T/C [27]: 150% | viability, T/C [28]: 208% | viability, T/C [29]: 206% | viability, T/C [30]: 207% | viability, T/C [31]: 125% | viability, T/C [32]: 127% | viability, T/C [33]: 176% | viability, T/C [34]: 189% | viability, T/C [35]: 179% | viability, T/C [36]: 197%
